Source: US8492377B2, “MTKI quinazoline derivatives” (Janssen Pharmaceutica NV, priority 2006, dated 2013)

Key:
human Fyn = human Fyn (Homo sapiens, UniProt P06241); assay: C2: Fyn kinase assay; format: biochemical; conditions: 5 ng human Fyn, 1.0 μM unlabeled ATP, poly(Glu,Tyr) 4:1, 25° C., 10 minutes; for IC50: read-out: C2: Fyn kinase pIC50 (converted)
Description: In this assay the Fyn kinase reaction is performed at 25° C. for 10 minutes in a 96-well microtiterplate. The 25 μl reaction volume contains 8 mM MOPS pH 7.0, 20 mM Mg-acetate, 0.2 mM Na2EDTA, 0.5 mM MnCl2, 1.0 μM unlabeled ATP, 0.2 μCi AT^33P, 20 ng poly(Glu,Tyr) 4:1 and 5 ng human Fyn.
(§1) The reaction is stopped by adding 5 μl of a 3% phosphoric acid solution. 5 μl of the reaction mixture is then spotted onto a Filtermat A filter (Wallac) and washed 3 times for 5 min. in 75 mM phosphoric acid and 1 time for 5 min. in methanol prior to drying and scintillation counting.

human Src = human Src (Homo sapiens, UniProt P12931); assay: C1: c-Src filter assay; format: biochemical; conditions: 5 ng human Src, 1.0 μM unlabeled ATP, poly(Glu,Tyr) 4:1, 25° C., 10 minutes; read-out: C1: c-SRC filter pIC50 (converted)
Sequence of human Src (P12931 whole entry): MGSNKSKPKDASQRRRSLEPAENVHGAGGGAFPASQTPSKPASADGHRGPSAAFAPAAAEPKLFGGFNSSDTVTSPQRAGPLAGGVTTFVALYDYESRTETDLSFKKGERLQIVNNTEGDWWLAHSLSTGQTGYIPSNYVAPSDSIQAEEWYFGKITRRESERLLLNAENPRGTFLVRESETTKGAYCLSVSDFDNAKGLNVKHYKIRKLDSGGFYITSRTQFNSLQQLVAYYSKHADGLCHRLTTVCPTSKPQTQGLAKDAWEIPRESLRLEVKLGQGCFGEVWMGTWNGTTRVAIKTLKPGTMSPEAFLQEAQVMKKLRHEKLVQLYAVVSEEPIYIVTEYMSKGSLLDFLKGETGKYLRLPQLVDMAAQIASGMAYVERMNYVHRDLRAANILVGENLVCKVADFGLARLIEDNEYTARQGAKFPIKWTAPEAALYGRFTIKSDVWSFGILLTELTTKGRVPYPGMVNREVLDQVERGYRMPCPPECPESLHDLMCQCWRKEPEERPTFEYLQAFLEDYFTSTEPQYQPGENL
Description: The in vitro inhibition of c-Src kinase was assessed using the glass-fiber filter technology as described by Davies, S. P. et al., Biochem J. (2000), 351; p. 95-105.
In the glass-fiber filter technology the activity of the kinase is measured using an appropriate substrate that is incubated with the aforementioned kinase protein in the presence of (^33P) radiolabeled ATP. (^33P) Phosporylation of the substrate is subsequently measured as radioactivity bound on a glassfiber-filter.
In an alternative filter based assay the final kinase activity was assessed using a phosphostorage screen instead of scintilation counting.
In this assay the Src kinase reaction is performed at 25° C. for 10 minutes in a 96-well microtiterplate. The 25 μl reaction volume contains 8 mM MOPS pH 7.0, 20 mM Mg-acetate, 0.2 mM Na2EDTA, 0.5 mM MnCl2, 1.0 μM unlabeled ATP, 0.2 μCi AT^33P, 20 ng poly(Glu,Tyr) 4:1 and 5 ng human Src.
as §1, with “quantification on the Typhoon (Amersham) using a phosphostorage screen.” for “scintillation counting.”

Sequence of human Fyn (P06241 whole entry): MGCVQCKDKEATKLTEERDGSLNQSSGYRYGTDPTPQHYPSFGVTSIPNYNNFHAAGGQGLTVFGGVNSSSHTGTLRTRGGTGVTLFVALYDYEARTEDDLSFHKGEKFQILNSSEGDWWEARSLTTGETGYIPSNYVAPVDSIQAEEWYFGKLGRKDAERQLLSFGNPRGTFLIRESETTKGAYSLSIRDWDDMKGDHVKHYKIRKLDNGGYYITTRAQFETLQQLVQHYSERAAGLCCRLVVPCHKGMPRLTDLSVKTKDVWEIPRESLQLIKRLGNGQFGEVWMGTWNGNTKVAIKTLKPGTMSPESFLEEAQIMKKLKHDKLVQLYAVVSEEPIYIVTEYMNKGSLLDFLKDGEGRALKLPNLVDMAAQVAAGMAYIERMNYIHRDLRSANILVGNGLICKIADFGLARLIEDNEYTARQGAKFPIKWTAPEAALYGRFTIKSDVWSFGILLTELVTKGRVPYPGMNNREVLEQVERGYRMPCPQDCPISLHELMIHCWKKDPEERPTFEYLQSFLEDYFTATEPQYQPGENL

Compound | IC50 (human Fyn) | IC50 (human Src) | C2: Fyn kinase pIC50 (human Fyn)
COc1cc2ncnc3c2cc1OCCCCCN(C(=O)OCc1ccccc1)Cc1ccc2c(c1N3)OCO2 [Compound A8] | 204 nM | – | –
COc1cc2ncnc3c2cc1OCCCCCNCc1ccc2c(c1N3)OCO2 [Compound A9] | < 1000 nM | 2290 nM | –
COc1cc2ncnc3c2cc1OCCCCCNCc1ccc2c(c1N3)OCO2 [Compound A10] | – | 2570 nM | >6
COc1cc2ncnc3c2cc1OCCCCCN(C)Cc1ccc2c(c1N3)OCO2 [Compound A11] | 18.2 nM | – | –
CN1CCCCCOc2cc3c(ncnc3cc2O)Nc2c(ccc3c2OCO3)C1 [Compound A12] | 34.7 nM | > 10000 nM | –
COc1cc2ncnc3c2cc1OCCCN(S(=O)(=O)c1ccccc1[N+](=O)[O-])CCN(C)Cc1ccc2c(c1N3)OCO2 [Compound A20] | 6.92 nM | 186 nM | –
COc1cc2ncnc3c2cc1OCCCNCCN(C)Cc1ccc2c(c1N3)OCO2 [Compound A22] | 39.8 nM | 3240 nM | –
CN1CCNCCCOc2cc3c(ncnc3cc2O)Nc2c(ccc3c2OCO3)C1 [Compound A23] | > 1000 nM | > 10000 nM | –
CN1CCN(C(=O)OC(C)(C)C)CCCOc2cc3c(ncnc3cc2O)Nc2c(ccc3c2OCO3)C1 [Compound A24] | > 1000 nM | > 10000 nM | –
CN1CCN(C(=O)OC(C)(C)C)CCCOc2cc3c(ncnc3cc2OC(=O)OC(C)(C)C)Nc2c(ccc3c2OCO3)C1 [Compound A25] | > 1000 nM | – | –
CN1CCN(CCCOc2cc3ncnc4c3cc2OCCCN(C(=O)OC(C)(C)C)CCN(C)Cc2ccc3c(c2N4)OCO3)CC1 [Compound A27] | 22.4 nM | 2240 nM | –
COCCOCCOc1cc2ncnc3c2cc1OCCCN(C(=O)OC(C)(C)C)CCN(C)Cc1ccc2c(c1N3)OCO2 [Compound A28] | < 1000 nM | > 10000 nM | –
CN(CCO)CCCOc1cc2ncnc3c2cc1OCCCN(C(=O)OC(C)(C)C)CCN(C)Cc1ccc2c(c1N3)OCO2 [Compound A29] | 43.7 nM | 2630 nM | –
COc1cc2ncnc3c2cc1OCCCNC(=O)[C@H](C)N(C)Cc1ccc2c(c1N3)OCO2 [Compound A38] | 245 nM | 3310 nM | –
C[C@H]1C(=O)NCCCOc2cc3c(ncnc3cc2O)Nc2c(ccc3c2OCO3)CN1C [Compound A40] | > 1000 nM | > 10000 nM | –
C[C@H]1C(=O)NCCCOc2cc3c(ncnc3cc2OCCCN2CCOCC2)Nc2c(ccc3c2OCO3)CN1C [Compound A42] | 64.6 nM | – | –
CN1CCN(C(=O)OC(C)(C)C)CCCOc2cc3c(ncnc3cc2OCCCN2CCC(S(C)(=O)=O)CC2)Nc2c(ccc3c2OCO3)C1 [Compound A54] | 69.2 nM | – | –
CN1CCCCCOc2cc3c(ncnc3cc2OCCCN)Nc2c(ccc3c2OCO3)C1 [Compound A57] | 18.2 nM | 933 nM | –
COc1cc2ncnc3c2cc1OCCCCCN(C(=O)OCc1ccccc1)Cc1cc(Oc2ccc(C)nc2)c2c(c1N3)OCO2 [Compound A68] | > 1000 nM | – | –
C[C@H]1C(=O)NCCCOc2cc3c(ncnc3cc2OCCCN2CCC(CCS(C)(=O)=O)CC2)Nc2c(ccc3c2OCO3)CN1C [Compound B55] | 115 nM | – | –

Next, values leading:

IC50 (human Fyn) | IC50 (human Src) | C2: Fyn kinase pIC50 (human Fyn) | Compound
< 1 nM | 537 nM | – | CN1CCCCCOc2cc3c(ncnc3cc2OC[C@@H](O)CN2CCCCC2)Nc2c(ccc3c2OCO3)C1 [Compound B1]
7.76 nM | 1100 nM | – | COCCOc1cc2ncnc3c2cc1OCCCCCN(C)Cc1ccc2c(c1N3)OCO2 [Compound B2]
11.7 nM | 447 nM | – | CN1CCN(CCCOc2cc3ncnc4c3cc2OCCCNCCN(C)Cc2ccc3c(c2N4)OCO3)CC1 [Compound B3]
23.4 nM | 1480 nM | – | COCCOCCOc1cc2ncnc3c2cc1OCCCNCCN(C)Cc1ccc2c(c1N3)OCO2 [Compound B4]
20.9 nM | 501 nM | – | CN(CCO)CCCOc1cc2ncnc3c2cc1OCCCNCCN(C)Cc1ccc2c(c1N3)OCO2 [Compound B5]
38 nM | – | – | C[C@H]1C(=O)NCCCOc2cc3c(ncnc3cc2OCCCN2CCOCC2)Nc2c(ccc3c2OCO3)CN1C [Compound B6]
91.2 nM | – | – | COCCOCCOc1cc2ncnc3c2cc1OCCCNC(=O)[C@H](C)N(C)Cc1ccc2c(c1N3)OCO2 [Compound B7]
16.6 nM | 6460 nM | – | COc1cc2ncnc3c2cc1OCCCCCNCc1cc(Br)c2c(c1N3)OCO2 [Compound B8]
21.9 nM | 1910 nM | – | COc1cc2ncnc3c2cc1OCCCN(C)CCN(C)Cc1ccc2c(c1N3)OCO2 [Compound B10]
0.275 nM | 263 nM | – | CN1CCN(CCCOc2cc3ncnc4c3cc2OCCCCCN(C)Cc2ccc3c(c2N4)OCO3)CC1 [Compound B12]
19.5 nM | – | – | CN1CCNCCCOc2cc3c(ncnc3cc2OCCCN2CCC(S(C)(=O)=O)CC2)Nc2c(ccc3c2OCO3)C1 [Compound B14]
< 1000 nM | – | – | Brc1cc2c(c3c1OCO3)Nc1ncnc3cc(OCCCN4CCCC4)c(cc13)OCCCCCNC2 [Compound B27]
< 1000 nM | – | – | CN1CCN(CCCOc2cc3ncnc4c3cc2OCCCCCNCc2cc(Br)c3c(c2N4)OCO3)CC1 [Compound B28]
38 nM | – | – | CCOC(CCOc1cc2ncnc3c2cc1OCCCCCN(C)Cc1ccc2c(c1N3)OCO2)OCC [Compound B32]
13.2 nM | – | – | COCCOc1cc2ncnc3c2cc1OCCCCCNCc1ccc2c(c1N3)OCO2 [Compound B33]
38 nM | – | – | C[C@H]1C(=O)NCCCOc2cc3c(ncnc3cc2OCCCN2CCS(=O)(=O)CC2)Nc2c(ccc3c2OCO3)CN1C [Compound B36]
138 nM | – | – | COCCNCCCOc1cc2ncnc3c2cc1OCCCNC(=O)[C@H](C)N(C)Cc1ccc2c(c1N3)OCO2 [Compound B38]
129 nM | – | – | C[C@H]1C(=O)NCCCOc2cc3c(ncnc3cc2OCCCNCCO)Nc2c(ccc3c2OCO3)CN1C [Compound B39]
214 nM | – | – | C[C@H]1C(=O)NCCCOc2cc3c(ncnc3cc2OCCCN(C)CCO)Nc2c(ccc3c2OCO3)CN1C [Compound B40]

IC50 (human Fyn) | IC50 (human Src) | C2: Fyn kinase pIC50 (human Fyn) | Compound
81.3 nM | – | – | COCCOc1cc2ncnc3c2cc1OCCCNC(=O)[C@H](C)N(C)Cc1ccc2c(c1N3)OCO2 [Compound B41]
282 nM | – | – | C[C@H]1C(=O)NCCCOc2cc3c(ncnc3cc2OC[C@@H]2CO2)Nc2c(ccc3c2OCO3)CN1C [Compound B42]
209 nM | – | – | Oc1cc2ncnc3c2cc1OCCCCCNCc1cc(Br)c2c(c1N3)OCO2 [Compound B44]
89.1 nM | – | – | CN1CCCCCOc2cc3c(ncnc3cc2O)Nc2c(cc(Br)c3c2OCO3)C1 [Compound B48]
> 1000 nM | – | – | COc1cc2ncnc3c2cc1OCCCCN(C(=O)OCc1ccccc1)CCc1ccc2c(c1N3)OCO2 [Compound B50]
110 nM | – | – | COc1cc2ncnc3c2cc1OCCCCN(C)CCc1ccc2c(c1N3)OCO2 [Compound B53]
51.3 nM | – | – | C[C@H]1C(=O)NCCCOc2cc3c(ncnc3cc2OCCCN2CCN(CCO)CC2)Nc2c(ccc3c2OCO3)CN1C [Compound B54]
85.1 nM | – | – | C[C@H]1C(=O)NCCCOc2cc3c(ncnc3cc2OCCCN2CCC(S(C)(=O)=O)CC2)Nc2c(ccc3c2OCO3)CN1C [Compound B56]
26.3 nM | – | – | C[C@H]1C(=O)NCCCOc2cc3c(ncnc3cc2OCCCN2CCN(C)CC2)Nc2c(ccc3c2OCO3)CN1C [Compound B57]
33.1 nM | – | – | C[C@H]1C(=O)NCCCOc2cc3c(ncnc3cc2OCCCN2CCN(C)CC2)Nc2c(ccc3c2OCO3)CN1C [Compound B58]
42.7 nM | – | – | C[C@H]1C(=O)NCCCOc2cc3c(ncnc3cc2OCCCN2CCN(C(=O)CCS(C)(=O)=O)CC2)Nc2c(ccc3c2OCO3)CN1C [Compound B59]
37.2 nM | – | – | CC(=O)NCCN1CCN(CCCOc2cc3ncnc4c3cc2OCCCNC(=O)[C@H](C)N(C)Cc2ccc3c(c2N4)OCO3)CC1 [Compound B60]
200 nM | – | – | C[C@H]1C(=O)NCCCOc2cc3c(ncnc3cc2OC[C@@H](O)CN2CCC(O)CC2)Nc2c(ccc3c2OCO3)CN1C [Compound B62]
< 1000 nM | – | – | CN1CCCCCOc2cc3c(ncnc3cc2OCCCN2CCN(CCO)CC2)Nc2c(cc(Br)c3c2OCO3)C1 [Compound B66]
< 1000 nM | – | – | CN(CCO)CCCOc1cc2ncnc3c2cc1OCCCCCN(C)Cc1cc(Br)c2c(c1N3)OCO2 [Compound B72]
69.2 nM | – | – | COc1cc2ncnc3c2cc1OCCCNC(=O)[C@H](C)N(C)Cc1cc(Cl)c2c(c1N3)OCO2 [Compound B74]
316 nM | – | – | COc1cc2ncnc3c2cc1OCCCN(C)C(=O)[C@H](C)N(C)Cc1cc(Cl)c2c(c1N3)OCO2 [Compound B76]
> 1000 nM | – | – | COc1cc2ncnc3c2cc1OCCCN(C)C(=O)[C@H](C)N(C)Cc1ccc2c(c1N3)OCO2 [Compound B78]
